Test results taken from patent US6281354A, “Analogs of duocarmycin and cc-1065” (The Scripps Research Institute, priority 1999, dated 2001).

Experiments:
[1] = In vitro cytotoxic activity
[2] = test system: w794 DNA; conditions: pH 7.5, earlier studies; cited from earlier work
[3] = test system: DNA; conditions: cited from earlier work
[4] = Calculated rate constant for acid-catalyzed solvolysis; type: physicochemical
[5] = test system: w794 DNA; experiment: Relative rates of DNA alkylation for (+)-1, 53 and 54 at the w794 5'-AATTA site; type: biochemical, SV40
Description: Modifications in the Trimethoxyindole Subunit: Role of the Methoxy Substituents. DNA alkylation by the natural enantiomers of 53-56 were compared with that of 1 in w794 DNA.
Relative Rates of DNA Alkylation for (+)-1, 53, and 54. Following the procedure detailed above, Eppendorf tubes containing 5' end-labeled w794 DNA (9 μL) in TE buffer (pH 7.5) were treated with (+)-duocarmnycin SA, 53, or 54 (1 μL, 10^-5 M in DMSO). […] The solutions were mixed and incubated at 25° C. for 1, 3, 6, 12, 24, 48, and 72 h, respectively. Subsequent isolation of the alkylated DNA by EtOH precipitation, resuspension in TE buffer (10 μL, pH 7.5), thermolysis (30 min, 100° C.), concurrent PAGE, and autoradiography were conducted as detailed above. The relative rate for the alkylation at the 5'-AATTA site was derived from the slopes of the plots of percent integrated optical density (IOD) of the high affinity alkylation site cleavage bands versus time.

[6] = test system: duplex DNA (w794, w836, c988, c820, c1346); type: biochemical, SV40
[7] = test system: w836 DNA; experiment: DNA alkylation sites and relative rates within the six-base A sequence (5'-AAAAAA) of w836 DNA; type: biochemical, SV40; conditions: 5'-AAAAAA
[8] = test system: w794 DNA; experiment: Rate of DNA alkylation at the single w794 high affinity site: pH and buffer dependence; type: biochemical, SV40; conditions: for change in rate of DNA alkylation over 2 pH units: 10 mM phosphate buffer, pH 6.0-8.1; for pH dependence of the rate of DNA alkylation: pH 7-8
Description: Rate of DNA Alkylation: pH Dependence. […] Because this was conducted using w794 DNA additionally containing >7000 base-pairs and multiple binding sites within the unlabeled portion of the DNA, the comparisons were conducted at concentrations that provide saturated binding and restrict the kinetic analysis to the pseudo-first order rate constant for alkylation. […] The relative lack of dependence on the acid concentration (pH) especially in the most relevant pH range of 7-8 in conjunction with the observations made in the accompanying paper has led us to propose an alternative source of reaction catalysis.
Relative Rates of DNA Alkylation for (+)-1 at pH 6-8. Eppendorf tubes containing 5' end-labeled w794 DNA (9 μL) in phosphate buffer (10 mM) at pH 6.0, 6.6, 7.1, 7.6, and 8.1 were prepared. The solutions at each pH were treated with (+)-duocarmycin SA (1μL, 10^-6 M in DMSO), mixed and incubated at 25° C. for 0.5, 1.0, 1.5, 2.0 and 3.0 h. […] The reactions were stopped at each time interval by EtOH precipitation of the DNA. The alkylated DNA was resuspended in TE buffer (10 μL, pH 7.5) and heated at 100° C. for 30 min follwed by PAGE and autoradiography as detailed above.
Since these observations sharply contrast the proposed important role of acid catalysis for activation of the agents toward DNA alkylation which has served as the basis for one prominent proposal for the origin of the DNA alkylation selectivity, we have examined in detail the pH dependence of the rate of DNA alkylation for duocarmycin SA (1) and CCBI-TMI over a physiologically relevant range. […] Between pH 6-7, the slope of the plot of pH versus log κobs was 0.2-0.3, far lower than that of 1.0 required of a first-order dependence on acid concentration.

[9] = Chemical/aqueous solvolysis reactivity followed by UV; type: physicochemical
Text: The solvolysis reactivities of N--BOC-CNA (78) and CNA (79) were followed spectrophotometrically by UV at both pH 3 (50% CH3 OH-buffer, buffer=4:1:20 v/v/v 0.1 M citric acid, 0.2 M Na2 HPO4, H2 O) and pH 7 (50% CH3 OH--H2 O). […] Particularly informative are comparisons of the benzo series of agents that differ only in the C-ring size (i.e., 76-79). Solvolysis reactivity smoothly increases through the series CBI<CBQ<CNA with both the N--BOC derivatives and the free NH derivatives.
Aqueous Solvolysis of N--BOC-CNA (78) and CNA (79). Samples of 78 (150 μg) and 79 (150 [g) were dissolved in CH3 OH (1.5 mL) and the resulting solutions were mixed with aqueous buffer (pH 3, 1.5 mL, 4:1:20 (v:v:v) 0.1 M citric acid, 0.2 M Na2 HPO4, and deionized H2 O respectively). Similarly, a solution of 78 (150 μg) in CH3 OH (1.5 mL) was mixed with deionized H2 O (pH 7, 1.5 mL). The UV spectra of the solutions were measured immediately after mixing with the appropriate aqueous solution. The blank and the solvolysis reaction solutions were stoppered, protected from light, and allowed to stand at 25° C. The total reaction times reflect those required to observe no further change in absorbance. For the solvolysis of 78 at pH 3, the UV spectrum was taken every 30 s for 10 min and then every 3 min for the next 40 min. The decrease of the absorbance at 319 nm was monitored. […] For the solvolysis of 78 at pH 7, the UV spectrum was monitored every 5 min for 19 h. […] For the solvolysis of 79 at pH 3, the UV spectrum was monitored every 2 min for the first 110 min and then every 10 min for the next 4 h. The decrease in the absorbance at 345 nm was recorded.

[10] = test system: w794 DNA; experiment: DNA alkylation (thermal strand cleavage, PAGE) within w794 DNA; type: biochemical, SV40
[11] = 10^-5 M, 25° C., 1-72 h, 5'-d(AATTA)
[12] = 10^-6 M, 25° C., pH 7.6, 10 mM phosphate

Structure (SMILES): COC(=O)c1cc2c([nH]1)C(=O)C=C1N(C(=O)c3cc4cc(OC)c(OC)c(OC)c4[nH]3)CC3CC123 (stereo not drawn) [duocarmycin SA]
- cytotoxic / antitumor activity in words [1]: biologically the most potent
- relative rate of DNA alkylation at w794 high affinity site [2]: 0.9 ×
- adenine N3 adduct formation (addition to least substituted cyclopropane carbon) [3]: 95-100%
- calculated rate constant for acid-catalyzed solvolysis, pH 7 ([4]; pH 7): 1.08×10^-10 s^-1
- calculated first-order rate constant for acid-catalyzed solvolysis, pH 7.6 [4]: 2.7×10^-11 s^-1
- concentration dependence of the rate of DNA alkylation ([5]; 10^-4 -10^-6 M): independent of agent concentration
- relative rate of DNA alkylation κrel versus 53 [5, 11]: 18-33
- relative rate of DNA alkylation κrel, 1 versus 54 [5, 11]: 1.3-2.3
- AT-rich adenine N3 alkylation selectivity (size of site) [6]: 3.5 base-pair
- AT-rich binding site covered in w836 DNA [7]: 3.5 base-pair
- alkylated adenines within six-base A-rich sequence of w836 DNA [7]: each of the four 3' adenines
- concentration dependence of the rate of DNA alkylation (pH study) ([8]; 10^-4 -10^-6 M): independent of agent concentration
- change in rate of DNA alkylation over 2 pH units ([8]; 10^-6 M, 25° C.): < 2 ×
- change in rate of DNA alkylation over 2 pH units ([8]; 10^-6 M, 25° C., listed as (+)-duocarmycin SA (1)): < 3 ×
- pseudo-first order rate constant for DNA alkylation, pH 7.1 ([8]; 10^-6 M, 25° C., pH 7.1, 5'-AATTA): 1.69×10^-4 s^-1
- pseudo first-order rate constant for DNA alkylation, pH 7.6 [8, 12]: 1.58×10^-4 s^-1
- slope of plot of pH versus log κobs ([8]; pH 6-7): 0.2-0.3
- pH dependence of the rate of DNA alkylation [8]: essentially no dependence
- pH dependence of the rate of DNA alkylation ([8]; listed as (+)-duocarmycin SA): the rate dependence on pH essentially disappeared
- pH dependence of the rate of DNA alkylation ([8]; listed as (+)-duocarmycin SA (1)): the rate dependence on pH essentially disappeared
- t1/2 of DNA alkylation ([8]; pH 7 / 7.1): 1.1 h
- t1/2 of DNA alkylation, pH 7.6 ([8]; pH 7.6): 1.2 h

Structure (SMILES): COC(=O)C1(C)NC2=C(C1=O)[C@@]13C[C@@H]1CN(C(=O)c1cc4cc(OC)c(OC)c(OC)c4[nH]1)C3=CC2=O (stereo partly drawn) [duocarmycin A]
- adenine N3 adduct formation (addition to least substituted cyclopropane carbon) [3]: 86-92%
- solvolysis reactivity/stability in words or rank order [9]: remarkable stability of 1-3 even at pH 5

Structure (SMILES): COc1c(O)c2c(c3cc(C(=O)N4CCc5c4c(O)c(OC)c4[nH]c(C(=O)N6C[C@H]7C[C@@]78C6=CC(=O)c6[nH]cc(C)c68)cc54)[nH]c13)CCN2C(N)=O [(+)-CC-1065, reference compound]
- adenine N3 adduct formation (addition to least substituted cyclopropane carbon) [3]: > 85%
- calculated first-order rate constant for acid-catalyzed solvolysis, pH 7.6 [4]: 2.5×10^-11 s^-1
- solvolysis reactivity/stability in words or rank order [9]: remarkable stability of 1-3 even at pH 5
- AT-rich adenine N3 alkylation selectivity (size of site) [6]: 5 base-pair
- pseudo first-order rate constant for DNA alkylation, pH 7.6 (unit not given) [8, 12]: 3.36×10^-4
- high affinity alkylation site in w794 DNA [10]: 5'-AATTA
